Publication PMC13244789, “Cutibacterium Adaptation to Life on Humans Provides a Potential C acnes Infection Biomarker” (The Journal of investigative dermatology, 2025)

Molecular target: T1, RoxP_1 (8His-TEV-RoxP_1, RoxP_1-tagless) (Cutibacterium acnes, UniProt Q6A6F6)
T1 construct: gene PPA1939; mature secreted protein; E. coli host, PelB signal peptide
Test: native gel shift (Coomassie, TCE tryptophan protection)
Type: binding
Conditions: HSB pH 7.4; weaker than hemin

T1 sequence (Q6A6F6 entry or part of it): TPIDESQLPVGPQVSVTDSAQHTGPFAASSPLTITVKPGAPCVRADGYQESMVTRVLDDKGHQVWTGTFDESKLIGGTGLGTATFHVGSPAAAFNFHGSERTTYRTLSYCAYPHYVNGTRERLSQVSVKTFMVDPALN

SMILES: C=CC1=C(C)c2cc3[nH]c(cc4nc(cc5[nH]c(cc1n2)c(C)c5CCC(=O)O)C(CCC(=O)O)=C4C)c(C)c3C=C [protoporphyrin IX]
- native gel shift (Coomassie, TCE tryptophan protection): porphyrins revealed weaker binding to PPIX but no detectable binding to coproporphyrin III
